From US20240166660A1, “KRAS G12C INHIBITORS” (BeiGene Switzerland GmbH, priority 2021, published 2024)

Molecular target: KRAS (aa 1-169) G12C, C51S, C80L, C118S (Homo sapiens (Human), UniProt P01116, C118S/C51S/C80L/G12C)
Assay: Biochemical functional assay: SOS1-mediated nucleotide exchange of GDP-loaded KRAS G12C, binding to GST-cRaf RBD, FRET readout
Conditions: 3 hrs pre-incubation with compound at 24° C., SOS1, GTPyS, inhibition of nucleotide exchange
Method in brief: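 GDP-loaded His-tagged KRAS construct preincubated with compound 3 h at 24° C in 25 mM HEPES pH7.5, 10 mM MgCl2, 0.01% Triton X-100; SOS1 (aa 564-1049), GTPγS and GST-cRaf RBD added for 3 h, then anti-His Tb cryptate/anti-GST XL665 for 3 h. HTRF 665/620 ratio; IC50 by four-parameter logistic fit.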

KRAS (aa 1-169) G12C, C51S, C80L, C118S, sequence (P01116 other isoform, or with tags, fused parts or gaps G12C/C51S/C80L/C118S): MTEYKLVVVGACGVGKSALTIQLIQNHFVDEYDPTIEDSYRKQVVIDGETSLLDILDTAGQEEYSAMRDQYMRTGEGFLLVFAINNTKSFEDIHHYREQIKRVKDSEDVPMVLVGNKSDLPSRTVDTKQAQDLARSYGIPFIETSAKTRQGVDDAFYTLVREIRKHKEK

| SMILES | IC50 [nM] |
| --- | --- |
| C=C(F)C(=O)N1CCN(c2nc(O[C@@H]3CCCC[C@H]3N(C)C)nc3cc(-c4cccc5cccc(Cl)c45)c4c(c23)OCCC4)C[C@@H]1CC#N [Compound B61, 2-((S)-4-(5-(8-chloronaphthalen-1-yl)-8-(((1R,2R)-2-(dimethylamino)cyclohexyl)oxy)-3,4-dihydro-2H-pyrano[2,3-f]quinazolin-10-yl)-1-(2-fluoroacryloyl)piperazin-2-yl)acetonitrile] | 186 |
| C=CC(=O)N1C[C@H](C)N(c2nc(OC[C@@H]3CCCN3C)nc3cc(-c4c(Cl)c(C)cc5[nH]ncc45)c4ccoc4c23)C[C@H]1C [Compound B62, 1-((2R,5S)-4-(4-(5-chloro-6-methyl-1H-indazol-4-yl)-7-(((S)-1-methylpyrrolidin-2-yl)methoxy)furo[2,3-f]quinazolin-9-yl)-2,5-dimethylpiperazin-1-yl)prop-2-en-1-one] | 642 |
| C=CC(=O)N1CCN(c2nc(OC[C@@H]3CCCN3C)nc3cc(-c4cccc5cccc(Cl)c45)c4c(c23)OCCC4)[C@@H](C)C1 [Compound B63, 1-((S)-4-(5-(8-chloronaphthalen-1-yl)-8-(((S)-1-methylpyrrolidin-2-yl)methoxy)-3,4-dihydro-2H-pyrano[2,3-f]quinazolin-10-yl)-3-methylpiperazin-1-yl)prop-2-en-1-one] | 148 |
| C=C(F)C(=O)N1CCN(c2nc(OC3CN(C)C3)nc3cc(-c4cccc5cccc(Cl)c45)c4c(c23)OCCC4)C[C@@H]1CC#N [Compound B64, (S)-2-(4-(5-(8-chloronaphthalen-1-yl)-8-((1-methylazetidin-3-yl)oxy)-3,4-dihydro-2H-pyrano[2,3-f]quinazolin-10-yl)-1-(2-fluoroacryloyl)piperazin-2-yl)acetonitrile] | 247 |
| C=C(F)C(=O)N1CCN(c2nc(OC[C@@H]3C[C@@H](F)CN3C)nc3cc(-c4cccc5cccc(Cl)c45)c4ccoc4c23)C[C@@H]1CC#N [Compound B65, 2-((S)-4-(4-(8-chloronaphthalen-1-yl)-7-(((2S,4R)-4-fluoro-1-methylpyrrolidin-2-yl)methoxy)furo[2,3-f]quinazolin-9-yl)-1-(2-fluoroacryloyl)piperazin-2-yl)acetonitrile] | 30 |
| C=C(F)C(=O)N1CCN(c2nc(OC[C@@H]3CCCN3C)nc3cc(-c4cccc5cccc(Cl)c45)c4c(c23)OCCC4)C[C@@H]1CC#N [Compound B66, 2-((S)-4-(5-(8-chloronaphthalen-1-yl)-8-(((S)-1-methylpyrrolidin-2-yl)methoxy)-3,4-dihydro-2H-pyrano[2,3-f]quinazolin-10-yl)-1-(2-fluoroacryloyl)piperazin-2-yl)acetonitrile] | 9.3 |
| C=C(F)C(=O)N1CCN(c2nc(OC3COCC3N(C)C)nc3cc(-c4cccc5cccc(Cl)c45)c4c(c23)OCCC4)C[C@@H]1CC#N (stereo partly drawn) [Compound B69, 2-((2S)-4-(5-(8-chloronaphthalen-1-yl)-8-((4-(dimethylamino)tetrahydrofuran-3-yl)oxy)-3,4-dihydro-2H-pyrano[2,3-f]quinazolin-10-yl)-1-(2-fluoroacryloyl)piperazin-2-yl)acetonitrile] | 1220 |
| C=C(F)C(=O)N1CCN(c2nc(OC[C@@H]3CCCN3C)nc3cc(-c4cccc5ccc(Cl)cc45)c4c(c23)OCCC4)C[C@@H]1CC#N [Compound B70, 2-((S)-4-(5-(7-chloronaphthalen-1-yl)-8-(((S)-1-methylpyrrolidin-2-yl)methoxy)-3,4-dihydro-2H-pyrano[2,3-f]quinazolin-10-yl)-1-(2-fluoroacryloyl)piperazin-2-yl)acetonitrile] | 35 |
| C=C(F)C(=O)N1CCN(c2nc(O[C@@H]3CCN(C)C3)nc3cc(-c4cccc5cccc(Cl)c45)c4c(c23)OCCC4)C[C@@H]1CC#N [Compound B71, 2-((S)-4-(5-(8-chloronaphthalen-1-yl)-8-(((R)-1-methylpyrrolidin-3-yl)oxy)-3,4-dihydro-2H-pyrano[2,3-f]quinazolin-10-yl)-1-(2-fluoroacryloyl)piperazin-2-yl)acetonitrile] | 304 |
| C=C(F)C(=O)N1CCN(c2nc(OC[C@@H]3COCCN3C)nc3cc(-c4cccc5cccc(Cl)c45)c4c(c23)OCCC4)C[C@@H]1CC#N [Compound B72, 2-((S)-4-(5-(8-chloronaphthalen-1-yl)-8-(((S)-4-methylmorpholin-3-yl)methoxy)-3,4-dihydro-2H-pyrano[2,3-f]quinazolin-10-yl)-1-(2-fluoroacryloyl)piperazin-2-yl)acetonitrile] | 194 |
| C=C(F)C(=O)N1CCN(c2nc(OC[C@@H]3C[C@H]4C[C@H]4N3C)nc3cc(-c4cccc5cccc(Cl)c45)c4c(c23)OCCC4)C[C@@H]1CC#N [Compound B73, 2-((S)-4-(5-(8-chloronaphthalen-1-yl)-8-(((1R,3S,5R)-2-methyl-2-azabicyclo[3.1.0]hexan-3-yl)methoxy)-3,4-dihydro-2H-pyrano[2,3-f]quinazolin-10-yl)-1-(2-fluoroacryloyl)piperazin-2-yl)acetonitrile] | 50 |
| C=C(F)C(=O)N1CCN(c2nc(N3CCCC(N(C)C)C3)nc3cc(-c4cccc5cccc(Cl)c45)c4c(c23)OCCC4)C[C@@H]1CC#N (stereo partly drawn) [Compound B74, 2-((2S)-4-(5-(8-chloronaphthalen-1-yl)-8-(3-(dimethylamino)piperidin-1-yl)-3,4-dihydro-2H-pyrano[2,3-f]quinazolin-10-yl)-1-(2-fluoroacryloyl)piperazin-2-yl)acetonitrile] | 837 |
| C=C(F)C(=O)N1CCN(c2nc(OC[C@@H]3CCN(C)C3)nc3cc(-c4cccc5cccc(Cl)c45)c4c(c23)OCCC4)C[C@@H]1CC#N [Compound B75, 2-((S)-4-(5-(8-chloronaphthalen-1-yl)-8-(((R)-1-methylpyrrolidin-3-yl)methoxy)-3,4-dihydro-2H-pyrano[2,3-f]quinazolin-10-yl)-1-(2-fluoroacryloyl)piperazin-2-yl)acetonitrile] | 44 |
| C=CC(=O)N1CCN(c2nc(OC[C@@H]3CCCN3C)nc3cc(-c4c(C)cccc4Cl)c4ccoc4c23)CC1 [Compound B76, 1-(4-(4-(2-chloro-6-methylphenyl)-7-(((S)-1-methylpyrrolidin-2-yl)methoxy)furo[2,3-f]quinazolin-9-yl)piperazin-1-yl)prop-2-en-1-one] | 279 |
| C=C(F)C(=O)N1CCN(c2nc(OC[C@@H]3CCCN3C)nc3cc(-c4ccc(C)cc4C(F)(F)F)c4ccoc4c23)C[C@@H]1CC#N [Compound B77, 2-((S)-1-(2-fluoroacryloyl)-4-(4-(4-methyl-2-(trifluoromethyl)phenyl)-7-(((S)-1-methylpyrrolidin-2-yl)methoxy)furo[2,3-f]quinazolin-9-yl)piperazin-2-yl)acetonitrile] | 535 |
| C=C(F)C(=O)N1CCN(c2nc(OC[C@@H]3CCCN3C)nc3cc(-c4cccc5c4CCC5)c4c(c23)OCCC4)C[C@@H]1CC#N [Compound B78, 2-((S)-4-(5-(2,3-dihydro-1H-inden-4-yl)-8-(((S)-1-methylpyrrolidin-2-yl)methoxy)-3,4-dihydro-2H-pyrano[2,3-f]quinazolin-10-yl)-1-(2-fluoroacryloyl)piperazin-2-yl)acetonitrile] | 12 |
